Earlier results in US7611733B2, “Nanoparticle formulations of platinum compounds” (priority 2004, dated 2009).
Where a name gives a salt, the structure may show the parent alone.

Test system: variety of tumor cell lines

[NH2][Pt+]([NH2])([Cl])[NH]CCCCCC[NH2+]CC[NH2+]CCCCCC[NH][Pt+]([NH2])([NH2])[Cl] [Formula II, bis{trans(diammine)(chloro)platinum(II)}μ(1,16-diamino-7,10-diazahexadecane-N1,N16) dinitrate salt. 2HNO3]
antitumor activity: outstanding antitumor activity
